Laboratory results taken from patent US12344610B2, “APOL1 inhibitors and methods of use” (Maze Therapeutics, Inc., priority 2022, dated 2025).

Tests used:
Assay type in all cases: cell-based
[1] = test system: HEK293 clonal cell line overexpressing APOL1 G1; assay: APOL1 G1 HEK293 cell rescue assay (Example B3); details: Homo sapiens, HEK293, HEK293 clonal line overexpressing APOL1 G1; geometric mean of at least 2 runs; † = single run; ¥ = concentration at 50% rescue estimated (no sigmoidal curve)
How it was run: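 HEK293 clonal line overexpressing APOL1 G1; EC50 is half-maximal reversal of APOL1-induced cell death. Values are the geometric mean of ≥2 runs on separate days, each run the average of duplicate wells. Where no sigmoidal curve could be fitted, the concentration giving 50% rescue was estimated.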

[2] = test system: Trypanosoma brucei Lister 427 VSG221 with APOL1 G1 recombinant protein; assay: APOL1 G1 trypanosome cell rescue assay (Example B5); details: Trypanosoma brucei, 20 h, read-out: APOL1 G1 Trypanosome Rescue EC50, Trypanosoma brucei Lister 427 VSG221 with APOL1 G1 recombinant protein, 20 hours, CellTiter-Glo; geometric mean of at least 2 assay runs; † = single assay run
How it was run: (§1)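 Recombinant mature APOL1 (residues 28-398, His-tag removed, E. coli-expressed, refolded from inclusion bodies, DDM buffer) at […] added with 250 trypanosomes/well in modified HMI-9 media. Duplicate 11-point 2-fold compound series, 0.4% DMSO; 20 h at 37° C, 5% CO2, then CellTiter-Glo luminescence for viability.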

[3] = test system: Trypanosoma brucei Lister 427 VSG221 with APOL1 G2 recombinant protein; assay: APOL1 G2 trypanosome cell rescue assay (Example B5); details: Trypanosoma brucei, 20 h, read-out: APOL1 G2 Trypanosome Rescue EC50, Trypanosoma brucei Lister 427 VSG221 with APOL1 G2 recombinant protein, 20 hours, CellTiter-Glo; geometric mean of at least 2 assay runs; † = single assay run
How it was run: as §1

Row | SMILES | EC50 [1] [nM] | EC50 [2] [nM] | EC50 [3] [nM]
1 | COCCN1C(=O)C2(CCN(CCOc3ccc(S(C)(=O)=O)cc3)CC2)c2cc(Cl)ccc21 [Compound 20, 5-chloro-1′-[2-(4-methanesulfonylphenoxy)ethyl]-1-(2-methoxyethyl)-1,2-dihydrospiro[indole-3,4′-piperidin]-2-one] | 815 | 949 | 263
2 | CN1C(=O)C2(CCN(CCOc3ccc(S(=O)(=O)CCCS(C)(=O)=O)cc3)CC2)c2cc(Cl)ccc21 [Compound 23, 5-chloro-1′-{2-[4-(3-methanesulfonylpropanesulfonyl)phenoxy]ethyl}-1-methyl-1,2-dihydrospiro[indole-3,4′-piperidin]-2-one] | 449 | 612 | 113
3 | CS(=O)(=O)c1ccc(OCCN2CCC3(CC2)C(=O)N(CCO)c2ccc(Br)cc23)cc1 [Compound 24, 5-bromo-1-(2-hydroxyethyl)-1′-[2-(4-methanesulfonylphenoxy)ethyl]-1,2-dihydrospiro[indole-3,4′-piperidin]-2-one] | 609 | 759 | 163
4 | COCCN1C(=O)C2(CCN(CCOc3ccc(S(C)(=O)=O)cc3)CC2)c2cc(C#N)ccc21 [Compound 25, 1′-[2-(4-methanesulfonylphenoxy)ethyl]-1-(2-methoxyethyl)-2-oxo-1,2-dihydrospiro[indole-3,4′-piperidine]-5-carbonitrile] | ~8300 | > 4000 | 1230
5 | CS(=O)(=O)c1ccc(OCCN2CCCC3(CC2)C(=O)Nc2ccccc23)cc1 (stereo not drawn) [Compound 26, 1-(2-(4-(methylsulfonyl)phenoxy)ethyl)spiro[azepane-4,3′-indolin]-2′-one] | ~10900 | > 4000 | > 4000
6 | CN1C(=O)CCc2cc(OCCN3CCC4(CC3)C(=O)Nc3ccc(Cl)cc34)ccc21 [Compound 27, 5-chloro-1′-[2-[(1-methyl-2-oxo-3,4-dihydroquinolin-6-yl)oxy]ethyl]spiro[indoline-3,4′-piperidine]-2-one] | 186 | 269 | 66.3
7 | O=C1CCc2cc(OCCN3CCC4(CC3)C(=O)Nc3ccc(Cl)cc34)cnc2N1CCO [Compound 192, 5-chloro-1′-(2-{[8-(2-hydroxyethyl)-7-oxo-5,6,7,8-tetrahydro-1,8-naphthyridin-3-yl]oxy}ethyl)-1,2-dihydrospiro[indole-3,4′-piperidin]-2-one] | 126 | 142 | 49.1
8 | CC(=O)N(C)CCS(=O)(=O)c1ccc(OCCN2CCC3(CC2)C(=O)Nc2ccc(Cl)cc23)cc1 [Compound 193, N-{2-[4-(2-{5-chloro-2-oxo-1,2-dihydrosiro[indole-3,4′-piperidin]-1′-yl}ethoxy)benzenesulfonyl]ethyl}-N-methylacetamide] | 377 | 288 | 70.2
9 | CS(=O)(=O)C1(c2ccc(OCCN3CCC4(CC3)C(=O)Nc3ccc(Cl)cc34)cc2)COC1 [Compound 195, 5-chloro-1′-{2-[4-(3-methanesulfonyloxetan-3-yl)phenoxy]ethyl}-1,2-dihydrospiro[indole-3,4′-piperidin]-2-one] | 72 | 74.4 | 19.8
10 | O=C1Nc2ccc(Cl)cc2C12CCN(CCOc1ccc3c(c1)CCS3(=O)=O)CC2 [Compound 196, 5-(2-{5-chloro-2-oxo-1,2-dihydrospiro[indole-3,4′-piperidin]-1′-yl}ethoxy)-2,3-dihydro-1λ^6-benzothiophene-1,1-dione] | 207 | 185 | 60.3
11 | CS(=O)(=O)c1ccc(OCCN2CCC3(CC2)C(=O)Nc2ccc(Cl)cc23)cc1C(F)F [Compound 197, 5-chloro-1′-{2-[3-(difluoromethyl)-4-methanesulfonylphenoxy]ethyl}-1,2-dihydrospiro[indole-3,4′-piperidin]-2-one] | 69.5 | 193 | 10.6
12 | O=C1Nc2ccc(Cl)cc2C12CCN(CCOc1ccc(S(=O)(=O)CCO)cc1)CC2 [Compound 198, 5-chloro-1′-{2-[4-(2-hydroxyethanesulfonyl)phenoxy)ethyl}-1,2-dihydrospiro[indole-3,4′-piperidin]-2-one] | 203 | 142 | 41.9
13 | CS(=O)(=O)Nc1ccc(OCCN2CCC3(CC2)C(=O)Nc2ccc(Cl)cc23)cc1 [Compound 214, N-[4-(2-{5-chloro-2-oxo-1,2-dihydrospiro[indole-3,4′-piperidin]-1′-yl}ethoxy)phenyl]methanesulfonamide] | 169 | 430 | 88.7
14 | O=C1Nc2ccc(Cl)cc2C12CCN(CCOc1ccc(S(=O)(=O)[C@H]3C[C@H](O)C3)cc1)CC2 [Compound 215, 5-chloro-1′-[2-(4-{[(trans)-3-hydroxycyclobutyl]sulfonyl}phenoxy)ethyl]-1,2-dihydrospiro[indole-3,4′-piperidin]-2-one] | 122 | 97 | 22.4
15 | CS(=O)(=O)c1ccc(OCCN2CCC3(CC2)C(=O)Nc2ccc(Cl)cc23)cc1C(O)CO (stereo not drawn) [Compound 216, 5-chloro-1′-{2-[3-(1,2-dihydroxyethyl)-4-methanesulfonylphenoxy]ethyl}-1,2-dihydrospiro[indole-3,4′-piperidin]-2-one] | ~1000 | 912 | 231
16 | O=C1CCc2cc(OCCN3CCC4(CC3)C(=O)Nc3ccc(Cl)cc34)ccc2N1[C@H]1C[C@H](O)C1 [Compound 224, 5-chloro-1′-[2-({2-oxo-1-[(trans)-3-hydroxycyclobutyl]-1,2,3,4-tetrahydroquinolin-6-yl}oxy)ethyl]-1,2-dihydrospiro[indole-3,4′-piperidin]-2-one] | 155 | 92.8 | 32.7
17 | O=C1Nc2ccc(Cl)cc2C12CCN(CCOc1ccc(S(=O)(=O)C3(CO)CC3)cc1)CC2 [Compound 225, 5-chloro-1′-[2-(4-{[1-(hydroxymethyl)cyclopropyl]sulfonyl}phenoxy)ethyl]-1,2-dihydrospiro[indole-3,4′-piperidin]-2-one] | 51.7 | 50.8 | 12.9
18 | CNC(=O)C1(S(=O)(=O)c2ccc(OCCN3CCC4(CC3)C(=O)Nc3ccc(Cl)cc34)cc2)CC1 [Compound 226, 1-[4-(2-{5-chloro-2-oxo-1,2-dihydrospiro[indole-3,4′-piperidin]-1′-yl}ethoxy)benzenesulfonyl]-N-methylcyclopropane-1-carboxamide] | 138 | 112 | 36
19 | CN(C)C(=O)C1(S(=O)(=O)c2ccc(OCCN3CCC4(CC3)C(=O)Nc3ccc(Cl)cc34)cc2)CC1 [Compound 227, 1-[4-(2-{5-chloro-2-oxo-1,2-dihydrospiro[indole-3,4′-piperidin]-1′-yl}ethoxy)benzenesulfonyl]-N,N-dimethylcyclopropane-1-carboxamide] | 210 | 248 | 61.6
20 | O=C1Nc2ccc(Cl)cc2C12CCN(CCOc1ccc(S(=O)(=O)C3(C(=O)N4CCC4)CC3)cc1)CC2 [Compound 228, 1′-[2-(4-{[1-(azetidine-1-carbonyl)cyclopropyl]sulfonyl}phenoxy)ethyl]-5-chloro-1,2-dihydrospiro[indole-3,4′-piperidin]-2-one] | 426 | 363 | 86.2
21 | CNC(=O)c1ccc(OCCN2CCC3(CC2)C(=O)Nc2ccc(Cl)cc23)cc1F [Compound 229, 4-(2-{5-chloro-2-oxo-1,2-dihydrospiro[indole-3,4′-piperidin]-1′-yl}ethoxy)-2-fluoro-N-methylbenzamide] | 396 | 778 | 186
22 | CN(C)C(=O)c1ccc(OCCN2CCC3(CC2)C(=O)Nc2ccc(Cl)cc23)cc1F [Compound 230, 4-(2-{5-chloro-2-oxo-1,2-dihydrospiro[indole-3,4′-piperidin]-1′-yl}ethoxy)-2-fluoro-N,N-dimethylbenzamide] | 325 | 801 | 209
23 | O=C(c1ccc(OCCN2CCC3(CC2)C(=O)Nc2ccc(Cl)cc23)cc1F)N1CCOCC1 [Compound 231, 5-chloro-1′-{2-[3-fluoro-4-(morpholine-4-carbonyl)phenoxy]ethyl}-1,2-dihydrospiro[indole-3,4′-piperidin]-2-one] | 169 | 231 | 66.7
24 | O=C(c1ccc(OCCN2CCC3(CC2)C(=O)Nc2ccc(Cl)cc23)cc1F)N1CCS(=O)(=O)CC1 [Compound 232, 4-[4-(2-{5-chloro-2-oxo-1,2-dihydrospiro[indole-3,4′-piperidin]-1′-yl}ethoxy)-2-fluorobenzoyl]-1λ^6-thiomorpholine-1,1-dione] | 137 | 157 | 41.6
25 | CS(=O)(=O)C1CN(C(=O)c2ccc(OCCN3CCC4(CC3)C(=O)Nc3ccc(Cl)cc34)cc2F)C1 [Compound 233, 5-chloro-1′-{2-[3-fluoro-4-(3-methanesulfonyl-azetidine-1-carbonyl)phenoxy]ethyl}-1,2-dihydrospiro[indole-3,4′-piperidin]-2-one] | 244 | 134 | 41.1
